In patent US11186606B2, “Compositions and methods of modulating the immune response by activating alpha protein kinase 1” (Shanghai Yao Yuan Biotechnology Co., Ltd., priority 2017, dated 2021):

Tests used:
[1] = target: T1, ALPK1 (Homo sapiens, UniProt Q96QP1); assay: Cell-free kinase assay of ALPK1 autophosphorylation (Western, anti-phospho-threonine); type: biochemical; conditions: ALPK1 2 nM, ATP; H1b-ADP 10, 1, 0.2 nM; HBP and HMP-1bP 1, 10, 100 nM
Procedure: ALPK1 activation results in its autophosphorylation. Accordingly, we next asked whether the binding of H1b-ADP to ALPK1 was sufficient to induce ALPK1 autophosphorylation. Phosphorylation assays were performed according to standard protocols. Briefly, ALPK1 was incubated (2 nM, 25° C., 1 h) in assay buffer (20 al, 25 mM HEPES pH 7.5, 50 mM KCl, 0.1 mM EDTA, 0.1 mM EGTA, 2 mM DTT, 1.5 mM CaCl2, 10 mM MgCl2) with ATP and chemically synthesized HBP, HMP-1bP, or H1b-ADP followed by denaturing gel electrophoresis and Western analysis with an anti-phospho-threonine antibody (CST) to detect autophosphorylation of ALPK1. […] The range of concentrations of HBP and HMP-1bP used in this assay (1 nM, 10 nM, 100 nM) was 10-fold higher than that used for H1b-ADP.

[2] = target: T1, ALPK1; assay: Cell-free kinase assay of ALPK1-dependent phosphorylation of IκB; type: biochemical; conditions: 2 nM ALPK1, with or without ATP, 1 hour
Procedure: We next tested whether H1b-ADP-induced autophosphorylation of ALPK1 was effective to activate NFκB using phosphorylation of IκB as a marker for this activity. Phosphorylation assays were performed according to standard protocols and phosphorylated protein was detected by gel electrophoresis and Western blotting using an antibody that detects phosphorylated IκB. Briefly, assays were performed in a 20 μl volume at 25° C. in assay buffer (25 mM HEPES pH 7.5, 50 mM KCl, 0.1 mM EDTA, 0.1 mM EGTA, 2 mM DTT, 1.5 mM CaCl2, 10 mM MgCl2) containing 2 nM ALPK1 and H1b-ADP […] with or without ATP, or either ALPK1 alone or H1b-ADP alone, both in the presence of ATP. After 1 hour of incubation, the reaction was loaded to denaturing gel for protein electrophoresis and Western was performed to detect phosphorylation of IkB using p-IkB antibody (Abcam).

[3] = test system: CT26 cells; assay: CT26 tumor xenograft model, tumor volume; type: in vivo, BALB/c mice
Procedure: We used a CT26 tumor xenograft model to test the anti-cancer activity of H1b-ADP. Tumor cells (2×10^5 per 100 uL CT26 cells) were inoculated subcutaneously into the right flank of BALB/c mice. At day 6, mice whose tumors had reached 3-5 mm in diameter were randomized and grouped into three groups (n=8 each group), control, HMP-1bP (580 ug), and H1b-ADP (1.2 ug). Injections were performed using a total volume of 20 uL at days 6, 8, 10, 12, and 14 post inoculation. Tumor volumes were calculated every 2 days from caliper measurements of tumor dimension using the formula (L×W^2)/2, where L is the longer measurement.
To test whether H1b-ADP could augment an anti-tumor response by a checkpoint inhibitor, we tested the effects of co-administration with an anti-PD1 antibody. Tumor cells (2×10^5 per 100 μL CT26 cells) were inoculated subcutaneously into the left and right flanks of BALB/c mice. At day 7, mice whose tumors had reached 5 mm in diameter were randomized and grouped (n=8 each group) into the following four groups: anti-PD1 antibody; rat IgG; H1b-ADP+rat IgG; H1b-ADP+anti-PD1 antibody. We utilized RMP1-14 as the anti-PD1 antibody (10 mg/kg) and a rat IgG 2a (2A3) as the control IgG. Each of the anti-PD-1 antibody and the control IgG was administered intraperitoneally in a 200 μL volume on days 6, 10, 12, and 17 post-inoculation. H1b-ADP (6.2 μg) was intratumorally injected in a 20 μL volume at day 6, 8, 10, 12, and 15. Tumor volumes were calculated every 2 days from caliper measurements of tumor dimensions using the formula (L×W^2)/2, where L is the longer measurement. The results are shown in FIG. 13A for injected tumors and FIG. 13B for distant tumors. […]
The experiment was carried out as combo experiments of anti-PD1 except for the following variations. At day 6, mice whose tumors had reached 5 mm in diameter were randomized and grouped into the following four groups: c-di-AM(PS)2; PBS; H1b-ADP; H1b-ADP+c-di-AM(PS)2. We utilized c-di-AM(PS)2 as the STING agonist. Each of the c-di-AM(PS)2 (1 μg) and H1b-ADP (6.2 μg) was administered intratumorally in a 20 μL volume on days 6, 7, and 9 post-inoculation.
The experiment was carried out as combo experiments of anti-PD-1 except for the following variations. At day 6, mice whose tumors had reached 5 mm in diameter were randomized and grouped into the following four groups: anti-CD4 antibody (GK1.5 clone, BE0003-1, BioXcell); rat IgG; H1b-ADP+rat IgG; H1b-ADP+anti-CD4 antibody. Each of the anti-CD4 antibody (200 μg) and the control IgG (200 μg) was administered intraperitoneally in a 200 μL volume on days 3, 4, 8 post-inoculation. H1b-ADP (6.2 μg) was administered intratumorally in a 20 μL volume on days 6, 8, 10, 12, 14 post-inoculation.
The experiment was carried out as combo experiments of anti-PD-1 except for the following variations. At day 6, mice whose tumors had reached 5 mm in diameter were randomized and grouped into the following four groups: Resquimod; PBS; H1b-ADP; H1b-ADP+Resquimod. Resquimod (10 μg) and H1b-ADP (6.2 μg) were administered intratumorally in a 20 μL volume on days 6, 8, 11 post-inoculation.
We used a CT26 tumor xenograft model to test the anti-cancer activity of H1b-ADP derivative Compounds 1 and 2. Tumor cells (2×10^5 per 100 uL CT26 cells) were inoculated subcutaneously into the right flank of BALB/c mice. At day 7, mice whose tumors had reached 3-5 mm in diameter were randomized and grouped into three groups (n=9 each group), control, Compound 1 (50 nmol), and Compound 2 (50 nmol). Injections were performed using a total volume of 20 uL at days 7, 9, and 11 post inoculation. Tumor volumes were calculated every 2 days from caliper measurements of tumor dimension using the formula (L×W^2)/2, where L is the longer measurement.

T1 sequence (Q96QP1 whole entry): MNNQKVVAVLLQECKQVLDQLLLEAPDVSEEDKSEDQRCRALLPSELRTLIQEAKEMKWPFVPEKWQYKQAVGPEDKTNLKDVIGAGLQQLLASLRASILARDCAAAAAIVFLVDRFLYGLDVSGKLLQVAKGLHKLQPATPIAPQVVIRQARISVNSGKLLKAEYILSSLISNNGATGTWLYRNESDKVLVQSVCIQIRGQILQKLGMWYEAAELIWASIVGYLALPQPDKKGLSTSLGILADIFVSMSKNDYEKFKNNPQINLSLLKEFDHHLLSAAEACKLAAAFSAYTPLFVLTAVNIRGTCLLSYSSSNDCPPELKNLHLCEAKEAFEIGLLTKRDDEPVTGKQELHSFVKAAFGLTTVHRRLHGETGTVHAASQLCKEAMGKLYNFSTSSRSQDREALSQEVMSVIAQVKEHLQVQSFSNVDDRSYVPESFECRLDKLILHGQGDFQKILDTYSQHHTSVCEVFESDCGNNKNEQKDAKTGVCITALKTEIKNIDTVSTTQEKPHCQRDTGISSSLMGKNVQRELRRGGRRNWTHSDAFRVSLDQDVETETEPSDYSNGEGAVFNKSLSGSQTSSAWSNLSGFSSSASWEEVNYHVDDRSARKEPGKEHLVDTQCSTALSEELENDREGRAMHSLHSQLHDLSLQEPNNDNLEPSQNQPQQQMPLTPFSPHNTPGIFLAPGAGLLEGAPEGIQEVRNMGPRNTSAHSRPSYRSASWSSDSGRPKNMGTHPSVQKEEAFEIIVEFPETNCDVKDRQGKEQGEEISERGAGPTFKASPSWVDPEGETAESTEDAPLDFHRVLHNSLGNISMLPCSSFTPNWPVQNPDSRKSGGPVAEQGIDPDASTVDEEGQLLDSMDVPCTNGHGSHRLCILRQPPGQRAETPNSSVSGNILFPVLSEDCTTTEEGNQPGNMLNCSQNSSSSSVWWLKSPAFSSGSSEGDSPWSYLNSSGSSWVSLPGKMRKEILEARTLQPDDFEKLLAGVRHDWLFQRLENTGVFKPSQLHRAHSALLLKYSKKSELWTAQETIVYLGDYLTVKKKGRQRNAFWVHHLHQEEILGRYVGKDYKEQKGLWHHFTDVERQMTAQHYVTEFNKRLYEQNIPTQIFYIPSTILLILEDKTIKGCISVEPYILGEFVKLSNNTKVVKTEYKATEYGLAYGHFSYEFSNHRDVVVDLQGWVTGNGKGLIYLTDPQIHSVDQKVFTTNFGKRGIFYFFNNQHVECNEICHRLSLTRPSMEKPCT

autophosphorylation of ALPK1 [1]: detected only in the presence of H1b-ADP
SMILES: Nc1ncnc2c1ncn2[C@@H]1O[C@H](COP(=O)(O)OP(=O)(O)O[C@@H]2O[C@H]([C@H](O)CO)[C@@H](O)[C@H](O)[C@@H]2O)[C@@H](O)[C@H]1O [Compound H1b-ADP, D-glycero-D-manno-heptose-1β-ADP]
IkB phosphorylation [2]: detected only in the presence of both ALPK1 and H1b-ADP in the presence of ATP | tumor growth ([3]; Example 7: H1b-ADP 6.2 μg intratumoral, RMP1-14 10 mg/kg intraperitoneal): markedly suppressed tumor growth | tumor growth ([3]; intratumoral, days 6, 8, 10, 12, 14, HMP-1bP 580 ug, H1b-ADP 1.2 ug): reduced tumor growth
